Assay results as given in publication PMC3365510 (Bioorganic & medicinal chemistry letters, 2012).
Several values for one entry are separate records, joined by “and”; a condition that tells them apart may be missing. Identical values can stand only once. Entries after “also recorded” stand apart in the source; their conditions may differ. Like-named read-outs stand apart in the source and are kept apart here. Values belong to the compound of their own block, whether it stands above or below them.

Key:
six other mGlu subtypes = assay: Activity at the six other mGlu subtypes; assay type: cell-based
mGlu3 [1] = target: T1, mGlu3 (Homo sapiens, UniProt Q14832); assay: mGlu3 GIRK assay; assay type: cell-based
mGlu3 [2] = target: T1, mGlu3; assay: Schild analysis, glutamate concentration-response in mGlu3 GIRK; assay type: cell-based; conditions: rightward shift and decreased maximal efficacy of glutamate
[3] = Intrinsic clearance in rat liver microsomes; assay type: in vitro ADME
[4] = Metabolite ID in human liver microsomes; assay type: in vitro ADME
mGlu2 = mGlu2 (Homo sapiens, UniProt Q14416); assay: mGlu2 GIRK assay; assay type: cell-based; conditions: mGlu3 NAM potency versus mGlu2 GIRK
[5] = Metabolite ID in rat liver microsomes; assay type: in vitro ADME
mGlu5 = mGlu5 (Homo sapiens, UniProt P41594); assay: mGlu5 calcium assay; assay type: cell-based
[6] = Intrinsic clearance in human liver microsomes; assay type: in vitro ADME
mGlu3 [7] = target: T1, mGlu3; assay: mGlu3 calcium assay, mGlu3 co-expressed with promiscuous G protein Gα15; assay type: cell-based
[8] = system: 68 GPCRs, ion channels and transporters; assay: Lead Profiling Screen at Ricerca, radioligand binding assays; conditions: screened at 10 μM, 68 targets
IP plasma:brain level = assay type: in vivo, rat; conditions: 10 mg/kg IP
[9] = 10% Tween80 in 0.5% methylcellulose

Sequence of mGlu5 (P41594 21-1212): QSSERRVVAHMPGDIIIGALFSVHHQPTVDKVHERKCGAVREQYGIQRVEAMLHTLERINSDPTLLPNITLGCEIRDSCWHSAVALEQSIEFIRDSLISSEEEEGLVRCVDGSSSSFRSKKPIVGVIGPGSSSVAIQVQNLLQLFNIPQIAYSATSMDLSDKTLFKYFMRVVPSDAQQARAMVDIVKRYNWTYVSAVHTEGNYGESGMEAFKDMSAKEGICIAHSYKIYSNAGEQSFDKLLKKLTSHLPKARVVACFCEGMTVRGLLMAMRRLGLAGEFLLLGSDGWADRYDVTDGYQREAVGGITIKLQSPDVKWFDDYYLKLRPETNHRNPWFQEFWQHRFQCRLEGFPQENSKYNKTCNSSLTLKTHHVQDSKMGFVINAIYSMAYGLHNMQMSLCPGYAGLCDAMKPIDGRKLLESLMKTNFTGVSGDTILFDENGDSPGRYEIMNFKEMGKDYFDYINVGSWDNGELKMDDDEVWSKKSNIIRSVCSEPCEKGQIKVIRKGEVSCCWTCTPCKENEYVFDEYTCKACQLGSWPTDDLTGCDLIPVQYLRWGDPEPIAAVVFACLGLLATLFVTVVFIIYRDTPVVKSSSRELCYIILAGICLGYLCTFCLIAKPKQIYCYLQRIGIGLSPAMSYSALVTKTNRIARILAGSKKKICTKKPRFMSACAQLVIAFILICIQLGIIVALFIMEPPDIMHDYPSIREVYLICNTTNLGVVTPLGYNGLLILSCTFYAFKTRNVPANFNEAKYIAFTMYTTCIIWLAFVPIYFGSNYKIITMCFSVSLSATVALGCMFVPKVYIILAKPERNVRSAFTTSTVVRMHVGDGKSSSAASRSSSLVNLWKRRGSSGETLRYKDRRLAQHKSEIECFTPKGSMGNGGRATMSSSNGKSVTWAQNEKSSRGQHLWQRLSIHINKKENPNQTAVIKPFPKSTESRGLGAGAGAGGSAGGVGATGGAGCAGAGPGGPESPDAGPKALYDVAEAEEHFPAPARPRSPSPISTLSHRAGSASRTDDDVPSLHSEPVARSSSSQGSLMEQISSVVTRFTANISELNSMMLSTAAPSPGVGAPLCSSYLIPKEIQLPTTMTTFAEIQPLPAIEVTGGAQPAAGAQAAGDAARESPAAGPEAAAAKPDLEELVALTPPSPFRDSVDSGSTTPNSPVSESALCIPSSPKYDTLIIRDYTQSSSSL
T1 sequence (Q14832 23-879): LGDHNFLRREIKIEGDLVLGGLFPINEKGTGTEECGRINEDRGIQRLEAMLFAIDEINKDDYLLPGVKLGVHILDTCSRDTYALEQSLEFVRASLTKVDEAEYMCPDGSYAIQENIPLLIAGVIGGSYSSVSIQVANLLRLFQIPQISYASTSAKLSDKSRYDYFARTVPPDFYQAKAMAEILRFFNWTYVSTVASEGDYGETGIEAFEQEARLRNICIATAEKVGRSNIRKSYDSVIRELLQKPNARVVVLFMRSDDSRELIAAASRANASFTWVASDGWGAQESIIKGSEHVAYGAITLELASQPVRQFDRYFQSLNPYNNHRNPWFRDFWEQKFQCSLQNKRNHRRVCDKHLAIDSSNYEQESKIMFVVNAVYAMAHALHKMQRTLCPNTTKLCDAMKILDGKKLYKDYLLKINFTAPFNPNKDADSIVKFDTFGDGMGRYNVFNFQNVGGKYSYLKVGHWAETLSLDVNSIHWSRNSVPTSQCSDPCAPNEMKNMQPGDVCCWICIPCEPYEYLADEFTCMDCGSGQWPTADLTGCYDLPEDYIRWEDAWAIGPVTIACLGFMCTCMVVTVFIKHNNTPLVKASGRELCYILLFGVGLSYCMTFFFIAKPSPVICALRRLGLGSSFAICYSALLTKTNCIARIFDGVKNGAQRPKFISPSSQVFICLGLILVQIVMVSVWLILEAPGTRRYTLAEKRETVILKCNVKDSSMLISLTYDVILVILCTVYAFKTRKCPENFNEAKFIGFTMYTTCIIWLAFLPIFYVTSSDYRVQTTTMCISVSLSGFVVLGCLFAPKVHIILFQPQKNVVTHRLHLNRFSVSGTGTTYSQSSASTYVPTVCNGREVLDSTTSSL
Sequence of mGlu2 (Q14416 19-872): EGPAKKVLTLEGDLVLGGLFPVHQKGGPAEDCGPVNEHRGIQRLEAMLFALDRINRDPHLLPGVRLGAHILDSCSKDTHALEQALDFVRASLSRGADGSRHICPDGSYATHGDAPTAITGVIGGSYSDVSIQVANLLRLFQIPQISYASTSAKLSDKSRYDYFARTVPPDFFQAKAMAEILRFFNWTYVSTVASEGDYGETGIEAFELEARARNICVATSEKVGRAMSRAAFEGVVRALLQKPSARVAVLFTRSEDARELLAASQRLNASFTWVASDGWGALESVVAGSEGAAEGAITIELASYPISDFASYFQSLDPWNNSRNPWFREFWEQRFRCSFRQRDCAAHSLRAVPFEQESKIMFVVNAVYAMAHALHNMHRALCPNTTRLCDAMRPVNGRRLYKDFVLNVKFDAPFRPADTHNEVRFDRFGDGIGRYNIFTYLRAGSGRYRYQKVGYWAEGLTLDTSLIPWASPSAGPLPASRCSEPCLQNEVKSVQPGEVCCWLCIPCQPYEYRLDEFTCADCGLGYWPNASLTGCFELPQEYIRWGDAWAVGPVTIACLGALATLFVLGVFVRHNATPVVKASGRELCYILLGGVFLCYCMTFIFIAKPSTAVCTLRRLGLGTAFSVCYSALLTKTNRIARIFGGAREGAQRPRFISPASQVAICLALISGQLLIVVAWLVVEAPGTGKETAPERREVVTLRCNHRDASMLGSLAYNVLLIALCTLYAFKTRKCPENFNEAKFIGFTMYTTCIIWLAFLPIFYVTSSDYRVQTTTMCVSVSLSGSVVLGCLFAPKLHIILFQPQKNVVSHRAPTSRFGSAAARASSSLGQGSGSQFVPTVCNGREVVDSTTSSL

IC50 (mGlu3 [1]; mGlu3 IC50, mGlu3 GIRK assay): ~10 µM and > 10 µM
Structure (SMILES): O=C(c1ccc(C#Cc2ccccc2)cc1)N1CCC(O)CC1 [Compound 3]
activity at the six other mGlu subtypes (six other mGlu subtypes): no activity

block of the glutamate EC80 (in words) (mGlu3 [1]; mGlu3 GIRK assay): full block
Structure (SMILES): COc1ccc(C#Cc2ccc(C(=O)N3CCCC(CO)C3)cc2)cc1 (stereo not drawn) [Compound 10e]

CLint scaled [3]: 240 mL/min/kg | principle biotransformation pathway [4]: P450-mediated O-demethylation | selectivity versus mGlu2 (mGlu2): > 15 fold | principle biotransformation pathway [5]: P450-mediated O-demethylation | activity/selectivity against mGlu5 (in words) (mGlu5): complete specificity versus mGlu5 | potentiation of an EC20 concentration of glutamate at mGlu5 (mGlu5; mGlu5 calcium assay, PAM mode): inactive | inhibition of an EC80 concentration of glutamate at mGlu5 (mGlu5; mGlu5 calcium assay, antagonist mode): inactive | CLint scaled [6]: 572 mL/min/kg | % Glu Min (mGlu3 [7]): 2.1±0.3% | block of the glutamate EC80 (in words) (mGlu3 [1]; mGlu3 GIRK assay): full blockade | potency ratio of 11 over 12 (mGlu3 [1]; mGlu3 GIRK assay): 2 fold | inhibition of off-targets [8]: ≤ 25% | brain level (IP plasma:brain level; [9]): 16.3 µM | plasma level (IP plasma:brain level; [9]): 9.7 µM | free concentration in rat brain (IP plasma:brain level; based on brain homogenate binding): ~ 163 nM
Structure (SMILES): COc1ccc(C#Cc2ccc(C(=O)N3CCC[C@@H](CO)C3)cc2)cc1 [Compound 11]
mechanism of mGlu3 antagonism (mGlu3 [2]): non-competitive (allosteric) mechanism of action | activity/selectivity against mGlu5 (in words) (mGlu5; listed as ML289): inactive; also recorded: highly selective versus mGlu5

block of the glutamate EC80 (in words) (mGlu3 [1]; mGlu3 GIRK assay): full blockade
Structure (SMILES): COc1ccc(C#Cc2ccc(C(=O)N3CCC[C@H](CO)C3)cc2)cc1 [Compound 12]
